Structures can show the parent of a compound that is named as a salt.
Key:
[1] = system: BFP-LC3 stably expressing NRK cells; assay: Lysotracker staining of BFP-LC3 stably expressing NRK cells; type: cell-based, rat; settings: treatment for 18 hours, compared with control cells
Experimental: Moreover, after treating BFP-LC3 stably expressing NRK cells with these seven small molecule compounds for 18 hours, staining with Lysotracker dye was performed.

SCMAS protein = SCMAS protein storage in neurons (immunofluorescence staining and western blot); type: cell-based, human; settings: CLN3^Δex7/8 neurons
Experimental: Sample preparation: for adherent cultured cells, exemplified by cells cultured in a six-well cell plate, the cell medium was aspirated and the cells were washed once with dPBS. About 100 μL of RIPA lysate (50 mM Tris-HCl, pH 7.5, 150 mM NaCl, 0.25% Na-deoxycholate, 0.1% NP-40, 0.1% Triton X-100) containing protease inhibitors and phosphatase inhibitors was added to each well. The cell lysate was scraped off completely with a cell scraper and collected into 1.5 mL EP tubes. Lysis was continued for 30 minutes on ice. For animal tissue, the weight of the animal tissue was weighed, and RIPA lysate containing protease inhibitors and phosphatase inhibitors was added with five times the volume of the animal tissue. The tissue was grinded on ice with a tissue grinder until there is no obvious tissue mass, collected into 1.5 mL EP tubes, and placed on ice for further lysis for 30 min. […]

NRK cells = assay: Lysotracker staining of NRK cells, flow cytometry; type: cell-based, rat
Excerpt: The impact of increased p62 protein levels on the cellular lysosomal functions was detected: GFP-p62 proteins and GFP proteins of the control group were overexpressed in NRK cells, and Lysotracker dye was used to detect the acidity of lysosomes in GFP-positive cells.

[2] = system: CLN3^Δex7/8 human neurons; assay: Lysotracker staining of CLN3^Δex7/8 human neurons, flow cytometry; type: cell-based
Experimental: In analyzing the mean fluorescence intensity of neural stem cells and neuronal staining or single cell establishment of NRK cells, flow cytometry was used: the cell medium was aspirated off, after wash with dPBS once, the digestive enzyme corresponding to the cell type was added to digest into single cells; the supernatant was removed by centrifugation, and the cells were resuspended with 1 mL of fresh medium; the cell suspension with filtered through 40 μm filter membrane and the single cell filtrate was collected; the single cell filtrate was transferred to a flow tube and analyzed or sorted using BD FACS Aria III; in the analysis, the fluorescence intensity of 1×10^4 cells for each sample was analyzed to obtain the mean fluorescence intensity (MFI); for sorting, cells were received in 96 well plates with medium, one cell per well to establish a cell line.
Studies above have shown that CLN3^Δex7/8 human neurons feature lysosomal acidity dysregulation. To investigate the effect of Compound G on lysosomal acidity in CLN3^Δex7/8 neurons, Lysotracker dye was used for staining and flow cytometry was used for analyzing the fluorescence intensity of Lysotracker dye in cells.

Compound | intracellular Lysotracker staining (lysosomal acidity) [1] | abnormal storage of SCMAS protein (SCMAS protein) | intracellular lysosomal acidity (Lysotracker) (NRK cells) | Lysotracker fluorescence intensity in CLN3^Δex7/8 human neurons [2]
CO/C1=C\C(C)=C\[C@@H](C)[C@@H](O)[C@@H](C)C/C(C)=C/C=C/[C@H](OC)[C@@H]([C@@H](C)[C@@H](O)[C@H](C)[C@@]2(O)C[C@@H](O)[C@H](C)[C@@H](C(C)C)O2)OC1=O [Baf-A1, bafilomycin A1] | significant decrease in lysosomal acidity |  |  | 
COC(=O)/C=C/C(=O)OC [DMF, dimethyl fumarate, reference compound] |  | significantly reduced | significantly increase the intracellular lysosomal acidity | significantly increased
